From ChEMBL document CHEMBL5360627, “Total Synthesis of Kuwanons A and B and Discovery of Their Antibacterial Mechanism” (2023)
In brackets after ≈: the same amount, converted by molar mass. Activity calls are given as the source filed them. The rule behind the calls is not given here.

Tests used:
Staphylococcus aureus [1] = assay: Antibacterial activity against Staphylococcus aureus ATCC 29213 assessed as inhibition of bacterial growth incubated for 18 hrs by CLSI based microdilution method; format: functional
Staphylococcus aureus [2] = assay: Antibacterial activity against methicillin resistant-Staphylococcus aureus […] assessed as inhibition of bacterial growth incubated for 18 hrs by CLSI based microdilution method; format: functional
[3] = test system: Staphylococcus epidermidis; assay: Antibacterial activity against Staphylococcus epidermidis ATCC 14990 assessed as inhibition of bacterial growth incubated for 24 hrs by Mueller-Hinton broth based assay; format: functional
Staphylococcus aureus [4] = assay: Antimicrobial activity against Staphylococcus aureus ATCC 29213 assessed as reduction in bacterial growth incubated for 24 hrs by Mueller-Hinton broth based assay; format: functional
Enterococcus faecalis [5] = assay: Antibacterial activity against Enterococcus faecalis ATCC 29212 assessed as reduction in bacterial growth incubated for 24 hrs by Mueller-Hinton broth based assay; format: functional
Bacillus subtilis [6] = assay: Antibacterial activity against Bacillus subtilis ATCC 6633 assessed as reduction in bacterial growth incubated for 24 hrs by Mueller-Hinton broth based assay; format: functional
Staphylococcus aureus [7] = assay: Potency index, ratio of chloramphenicol MIC to test compound MIC for antimicrobial activity against Staphylococcus aureus ATCC 29213 assessed as reduction in bacterial growth incubated for 24 hrs by Mueller-Hinton broth based assay; format: functional
[8] = test system: Staphylococcus epidermidis; assay: Potency index, ratio of chloramphenicol MIC to test compound MIC for antibacterial activity against Staphylococcus epidermidis ATCC 14990 assessed as inhibition of bacterial growth incubated for 24 hrs by Mueller-Hinton broth based assay; format: functional
Enterococcus faecalis [9] = assay: Potency index, ratio of chloramphenicol MIC to test compound MIC for antibacterial activity against Enterococcus faecalis ATCC 29212 assessed as reduction in bacterial growth incubated for 24 hrs by Mueller-Hinton broth based assay; format: functional
Bacillus subtilis [10] = assay: Potency index, ratio of chloramphenicol MIC to test compound MIC for antibacterial activity against Bacillus subtilis ATCC 6633 assessed as reduction in bacterial growth incubated for 24 hrs by Mueller-Hinton broth based assay; format: functional
Staphylococcus aureus [11] = assay: Bactericidal activity against Staphylococcus aureus ATCC 29213 assessed as inhibition of bacterial growth measured at 8 hrs by time-kill assay; format: functional, organism-based
Staphylococcus aureus [12] = assay: Bactericidal activity against Staphylococcus aureus ATCC 29213 assessed as reduction in bacterial growth at 8 times MIC measured at 8 hrs by time-kill assay; format: functional
Staphylococcus aureus [13] = assay: Bactericidal activity against Staphylococcus aureus ATCC 29213 assessed as reduction in bacterial growth at 0.5 to 8 times MIC measured at 24 hrs by time-kill assay; format: functional, organism-based
Staphylococcus aureus [14] = assay: Bactericidal activity against Staphylococcus aureus ATCC 29213 assessed as reduction in bacterial growth at 8 microg/ml measured immediately by time-kill assay; format: functional, organism-based; conditions: dose 8.0 µg/ml
Cell membrane [15] = assay: Induction of cell membrane disruption in Staphylococcus aureus ATCC 29213 assessed as increase in fluorescence intensity at 8 microg/ml incubated for 2 hrs by scanning electron microscopic analysis; format: subcellular; conditions: dose 8.0 µg/ml
Cell membrane [16] = assay: Induction of cell membrane disruption in Staphylococcus aureus ATCC 29213 assessed as appearance of round cell at 8 microg/ml incubated for 2 hrs by scanning electron microscopic analysis; format: subcellular; conditions: dose 8.0 µg/ml
Cell membrane [17] = assay: Induction of cell membrane disruption in Staphylococcus aureus ATCC 29213 assessed as appearance of wrinkled cell at 8 microg/ml incubated for 2 hrs by scanning electron microscopic analysis; format: subcellular; conditions: dose 8.0 µg/ml
Cell membrane [18] = assay: Induction of cell membrane disruption in Staphylococcus aureus ATCC 29213 assessed as appearance of ruptured cell at 8 microg/ml incubated for 2 hrs by scanning electron microscopic analysis; format: subcellular; conditions: dose 8.0 µg/ml
Cell membrane [19] = assay: Induction of cell membrane disruption in Staphylococcus aureus ATCC 29213 assessed as appearance of uneven cell at 8 microg/ml incubated for 2 hrs by scanning electron microscopic analysis; format: subcellular; conditions: dose 8.0 µg/ml
Cell membrane [20] = assay: Disruption of membrane integrity in Staphylococcus aureus ATCC 29213 assessed as increase in green fluorescence at 8 microg/ml incubated for 2 hrs by nuc-green dye based fluorescence microscopic analysis; format: subcellular; conditions: dose 8.0 µg/ml
Cell membrane [21] = assay: Disruption of membrane integrity in Staphylococcus aureus ATCC 29213 assessed as increase in red fluorescence at 8 microg/ml incubated for 2 hrs by EthD-III dye based fluorescence microscopic analysis; format: subcellular; conditions: dose 8.0 µg/ml
Staphylococcus aureus [22] = assay: Bactericidal activity against Staphylococcus aureus ATCC 29213 assessed as reduction in bacterial growth at 8 microg/ml measured at 2 hrs by time-kill assay; format: functional, organism-based; conditions: dose 8.0 µg/ml

SMILES | MIC (Staphylococcus aureus [1]) [µg/mL] | MIC (Staphylococcus aureus [2]) [µg/mL] | MIC [3] [µg/mL] | MIC (Staphylococcus aureus [4]) [µg/mL] | MIC (Enterococcus faecalis [5]) [µg/mL] | MIC (Bacillus subtilis [6]) [µg/mL] | Activity (Staphylococcus aureus [12]) [log10CFU/ml] | other results
CC(C)=CCc1c(-c2ccc3c(c2O)C=CC(C)(C)O3)oc2cc(O)cc(O)c2c1=O | 4 (≈ 9.51 µM) | 4 (≈ 9.51 µM) | 1 (≈ 2.38 µM) | 1 (≈ 2.38 µM) | 1 (≈ 2.38 µM) | 1 (≈ 2.38 µM) | 2 | Ratio (Staphylococcus aureus [7]): 8; Ratio [8]: 8; Ratio (Enterococcus faecalis [9]): 8; Ratio (Bacillus subtilis [10]): 8; Activity (Staphylococcus aureus [11]): Dose-Dependent Effect; Activity (Staphylococcus aureus [13]): inactive; Activity (Staphylococcus aureus [14]): Active; Activity (Cell membrane [15]): Active; Activity (Cell membrane [16]): Active; Activity (Cell membrane [17]): Active; Activity (Cell membrane [18]): Active; Activity (Cell membrane [19]): Active; Activity (Cell membrane [20]): Active; Activity (Cell membrane [21]): Active
O=C(N[C@H](CO)[C@H](O)c1ccc([N+](=O)[O-])cc1)C(Cl)Cl [CHLORAMPHENICOL] |  |  | 8 (≈ 24.8 µM) | 16 (≈ 49.5 µM) | 8 (≈ 24.8 µM) | 8 (≈ 24.8 µM) |  | 
CC(C)=CCc1c(-c2ccc(O)c3c2OC(C)(C)C=C3)oc2cc(O)cc(O)c2c1=O [KUWANON A] | 8 (≈ 19 µM) | 8 (≈ 19 µM) | 2 (≈ 4.76 µM) | 4 (≈ 9.51 µM) | 8 (≈ 19 µM) | 4 (≈ 9.51 µM) |  | 
CC1(C)S[C@@H]2[C@H](NC(=O)[C@H](N)c3ccccc3)C(=O)N2[C@H]1C(=O)O [AMPICILLIN] |  |  | 16 (≈ 45.8 µM) | 0.5 (≈ 1.43 µM) | 0.5 (≈ 1.43 µM) | 8 (≈ 22.9 µM) | 5 | Activity (Staphylococcus aureus [22]): inactive
